According to US20040249124A1 (priority 2001, published 2004):

Test system: antibody MBS-3 binding to p17
Experiment: Competitive ELISA: displacement of MBS-3 binding to p17 absorbed in solid phase

Substance: NH2-Ser-Gly-Gly-Glu-Leu-Asp-Arg-Trp-Glu-Lys-Ile-Arg-Leu-Arg-COOH (H-SGGELDRWEKIRLR-OH) [SEQ ID NO: 2]
- displacing the binding of the antibody MBS-3 to p17: efficacious in displacing
